Measured values: patent US20090022915A1, “PARTICLE AND PREPARATION CONTAINING THE PARTICLE” (ONO PHARMACEUTICAL CO., LTD.,, priority 2005, published 2009)

How the values were obtained:
[1] = Absorption test, oral administration (3 mg/kg) of microemulsion preparation; type: in vivo; settings: rhesus monkey, plasma, preparation of Comparative Example 1, male rhesus monkeys, relative to intravenous 0.4 mg/kg, read-out: bioavailability (BA)
Procedure: 3. Oral Administration (3 mg/kg)
An oral administration tube was inserted through the mouth of each of three male rhesus monkeys (mean body weight: 3.5 kg, age: 3) and 5.25 mL (3 mg/kg) of the preparation produced in Comparative Example 1 was orally administrated. After administration (0.5, 1, 2, 4, and 6 hours), blood was collected from the cubital cutaneous vein and the obtained blood was centrifugally separated to obtain blood plasma, and then the concentration of the compound 1 was measured.
(§1) 5. Intravenous Administration (0.4 mg/kg)
(§2) The preparation produced in Comparative Example 3 was intravenously administered to each of three male cynomolgus monkeys (mean body weight: 4 kg, age: 5 to 6) in the concentration of 0.4 mg/kg. After administration, blood was collected from the cubital cutaneous vein and the obtained blood was centrifugally separated to obtain blood plasma, and then the concentration of the compound 1 was measured.
(§3) Also, a bioavailability (BA (%)) was calculated from the obtained results.
(§4) BA denotes a numerical value represented by “(AUC of pulmonary administration/dose of pulmonary administration)/(AUC of intravenous administration/dose of intravenous administration)×100” (%), and AUC denotes an area under the blood concentration time curve (ng·hr/ml).

[2] = Absorption test, pulmonary administration (2 mg/kg) of suspension; type: in vivo, rhesus monkeys
Procedure: 1. Pulmonary Administration (2 mg/kg)
Each of three male rhesus monkeys (mean body weight: 3.35 kg, age: 5) was anesthetized with ketamine and, after inserting a bronchial catheter and inserting an administration tube inside the catheter, the suspension produced in Preparation Example 1 was administered into the lung in a dose of 2 mg/kg. Before and after administration (0.25, 0.5, 1, 2, 3, 4, 6, and 8 hours), blood was collected from the cubital cutaneous vein and the obtained blood was centrifugally separated to obtain blood plasma, and then the concentration of the compound 1 was measured.
as §1, §2, §3, §4

[3] = Solubility in water; type: physicochemical
[4] = Particle size measurement by laser diffraction particle size distribution analyzer; type: physicochemical; settings: volume mean diameter
Procedure: The “mean particle size” means a particle size which represents a group of particles, when the group of particles is composed of a lot of particles each having a non-uniform size. The mean particle size includes, but is not limited to, weighting averages such as a number mean diameter, a length mean diameter, an area mean diameter, a volume mean diameter and the like, and means the volume mean diameter in the present invention.
For the measurement of the particle size, a hexane solution (20 mM) of Aerosol OT was used as a disperse medium. Particles to be measured were placed in a test tube and 1 mL of the disperse medium was added to obtain a suspension. The suspension was subjected to an ultrasonic treatment for one minute and the particle size was measured using a laser diffraction particle size distribution analyzer (SALD-2100: Shimadzu Corporation). In the case of measuring the particle size of particles in the suspension, an aqueous 0.1% Polysorbate 80 solution was used as the disperse medium in place of Aerosol OT.

[5] = Absorption test, pulmonary administration (0.2 mg/kg) of suspension; type: in vivo; settings: cynomolgus monkey, plasma, suspension of Preparation Example 2, male cynomolgus monkeys, relative to intravenous 0.4 mg/kg, read-out: bioavailability (BA)
Procedure: 2. Pulmonary Administration (0.2 mg/kg)
Each of three male cynomolgus monkeys (mean body weight: 3.5 to 4.5 kg, age: 5 to 6) was anesthetized with ketamine and, after inserting a bronchial catheter and inserting an administration tube inside the catheter, the suspension produced in Preparation Example 2 was administered into the lung in a dose of 0.2 mg/kg. Before and after administration (0.25, 0.5, 1, 2, 3, 4, 8 and 12 hours), blood was collected from the cephalic vein and the obtained blood was centrifugally separated to obtain blood plasma, and then the concentration of the compound 1 was measured.
as §1, §2, §3, §4

Structure (SMILES): CC(C)(C)OC(=O)N1CSC[C@H]1C(=O)N[C@@H](CSCC1CCCCC1)C(=O)NC1CCN(Cc2ccccc2)CC1 [compound 1, Tert-butyl (4R)-4-{[((1R)-2-[(1-benzylpiperidin-4-yl)amino]-1-{[(cyclohexylmethyl)thio]methyl}-2-oxoethyl)amino]carbonyl}-1,3-thiazolidine-3-carboxylate]
- bioavailability [1]: 0.2%
- improvement in BA ([2]; pulmonary administration versus oral administration): ≥ 450 times
- bioavailability ([2]; rhesus monkey, plasma, pulmonary administration 2 mg/kg, suspension of Preparation Example 1, male rhesus monkeys, relative to intravenous 0.4 mg/kg, read-out: bioavailability (BA)): 93.4%
- solubility in water [3]: poorly soluble in water
- Mean particle size (μm) [4]: about 120 μm
- bioavailability [5]: 103%
